Assay results: patent US6806359B1, “Hormone receptor compositions and methods” (The Salk Institute for Biological Studies, priority 1986, dated 2004)

Legend:
rTR alpha = molecular target: T1, rTR alpha (Rattus norvegicus, UniProt P63059); assay: ^125I-T3 binding to in vitro translated rTR alpha (Scatchard and competition); details: excess competitor
T1 construct: made in house; host or cells: rabbit reticulocyte lysate (SP6 transcripts of rbeA12B)
T1 sequence (P63059 1-410 isoform P63059-2): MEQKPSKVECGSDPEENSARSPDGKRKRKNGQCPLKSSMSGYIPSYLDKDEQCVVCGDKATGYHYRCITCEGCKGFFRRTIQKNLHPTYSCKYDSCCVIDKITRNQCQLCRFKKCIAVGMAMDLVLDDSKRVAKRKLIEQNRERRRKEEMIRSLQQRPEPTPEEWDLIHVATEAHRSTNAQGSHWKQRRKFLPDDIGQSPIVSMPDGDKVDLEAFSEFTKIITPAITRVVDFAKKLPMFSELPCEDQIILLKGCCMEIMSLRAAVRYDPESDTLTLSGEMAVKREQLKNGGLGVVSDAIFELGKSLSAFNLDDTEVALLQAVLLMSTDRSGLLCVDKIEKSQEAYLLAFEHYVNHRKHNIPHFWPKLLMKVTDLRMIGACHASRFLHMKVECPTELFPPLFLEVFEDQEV
Excerpt: In vitro translation and thyroid hormone binding of rTR alpha FIG. 69 rTR alpha was transcribed in vitro and translated in a rabbit reticulocyte lysate. […] Lane 1, no added RNA; lane 2, rbeA12, which contains the entire 5′ untranslated region; lane 3, rbeA12B, which contains only 97 bp of 5′ untranslated sequence. […] Samples from rbeA12B programmed lysates were mixed with increasing concentrations of unlabeled thyroid hormone or analogs to compete with labeled hormone. […] In vitro transcription and translation and hormone binding were performed as described (22, 23).
23. For in vitro transcription, the entire EcoRI insert of rbeA12 was cloned into pGEM1 (Promega Biotec). […] For thyroid hormone binding, transcriptions were performed with SP6 polymerase and 5 to 10 micrograms of rbeA12B linearized with SstI. […] Thyroid hormone binding for both the Scatchard and competition analyses were determined in the same manner, except that unlabeled protein was used for the Scatchard analysis. […] Specific hormone binding was determined by adding a 1000-fold excess of unlabeled hormone and assayed by counting radioactivity eluting in the excluded volume from a Sephadex G-25 fine (Pharmacia) 0.9-by 4.0-cm. column.

GR = molecular target: T2, GR (Homo sapiens, UniProt P04150); assay: hGR functional assay: CAT activity in CV-1 cells cotransfected with pRShGR alpha (or mutant) and pMTVCAT; type: cell-based; parameters: The expression vector linking the RSV LTR to full length hGR cDNA (pRShGR alpha) was designed to obtain high levels of expression; expressed in transfected cells; host or cells: CV-1 monkey kidney cells, cotransfected with pMTVCAT; details: 100 nM steroid, cotransfected CV-1 cells
T2 sequence (P04150 1-777): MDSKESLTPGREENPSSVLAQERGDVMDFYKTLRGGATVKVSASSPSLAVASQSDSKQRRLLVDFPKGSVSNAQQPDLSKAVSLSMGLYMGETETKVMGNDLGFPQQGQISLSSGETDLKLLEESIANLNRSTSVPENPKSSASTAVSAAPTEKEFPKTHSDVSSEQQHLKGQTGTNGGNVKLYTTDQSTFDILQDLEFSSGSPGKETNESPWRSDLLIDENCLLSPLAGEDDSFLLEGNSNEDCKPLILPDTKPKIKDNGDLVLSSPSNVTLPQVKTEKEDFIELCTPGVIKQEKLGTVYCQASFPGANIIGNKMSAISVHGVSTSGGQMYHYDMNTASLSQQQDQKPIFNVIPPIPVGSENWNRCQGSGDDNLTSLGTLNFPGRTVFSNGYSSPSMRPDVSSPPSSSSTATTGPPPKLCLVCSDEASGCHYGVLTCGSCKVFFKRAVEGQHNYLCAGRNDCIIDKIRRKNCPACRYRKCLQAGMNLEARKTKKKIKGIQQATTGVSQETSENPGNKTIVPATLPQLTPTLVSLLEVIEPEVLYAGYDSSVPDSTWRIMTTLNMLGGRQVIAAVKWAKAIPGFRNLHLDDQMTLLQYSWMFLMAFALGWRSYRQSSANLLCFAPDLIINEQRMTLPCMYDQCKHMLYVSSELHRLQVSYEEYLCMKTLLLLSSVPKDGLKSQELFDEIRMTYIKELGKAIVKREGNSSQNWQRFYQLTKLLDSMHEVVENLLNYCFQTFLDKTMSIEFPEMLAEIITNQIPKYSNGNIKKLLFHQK
Excerpt: The assay system and strategy used to study the expression of functional hGR from the cloned cDNA (See Experimental Section I) is shown in FIG. 11. In these experiments, a glucocorticoid-responsive promoter/enhancer element linked to a reporter gene was introduced into a receptor-negative cell. […] For our assay, we chose to use the MTV LTR fused to the sequence coding for chloramphenicol acetyltransferase (CAT) (EC2.3.1.28). […] Cotransfection of pMTVCAT (or pGMCAT) with a receptor expression plasmid provides functional receptors that allow induction of CAT activity upon treatment of the transfected cells with glucocorticoid hormone. In addition, biochemical studies such as steroid binding activity and Western blot analysis of the expressed receptors can be performed simultaneously.
The cells are then cultured in the presence or absence of hormone. CV-1 cells were used to monitor induction of CAT activity, and COS cells were used to measure steroid-binding capacity and the expression of hGR protein.
CAT assays were performed as indicated in Experimental Procedures (See Section II. F.). C, chloramphenicol; AC, 3-acetylchloramphenicol.
The levels of CAT activity were plotted as percentages of the maximal response observe in a particular experiment.
Each plasmid preparation used for transfection was purified using two consecutive CsCl-EtBr equilibrium gradients. […]

C[C@]12CC[C@@H]3c4ccc(O)cc4CC[C@H]3[C@@H]1CC[C@@H]2O [oestradiol]
competition for T3 binding to rTR alpha by excess compound (rTR alpha): no competition
induction of CAT activity by steroid (GR): failed to induce CAT activity
